What was measured:
[1] = target: T1, GluN1(T648A)/GluN2B receptors (Rattus norvegicus, UniProt P35439+Q00960, T648A); assay: Whole-cell patch-clamp of GluN1(T648A)/GluN2B receptor responses in HEK293 cells; format: cell-based; conditions: for sensitivity of spontaneous currents (absence of glutamate and glycine) to antagonist: 100 μM
T1 construct: expressed in transfected cells; host or cells: HEK293
Source text: (§1) Human embryonic kidney (HEK293) cells were transfected with expression vectors containing: GluN1–1a (GenBank accession number U08261)[52]; GluN2B (GenBank accession number M91562); GluN1-4a(F484A), (generous gift from Dr. J. J. Woodward)[53] (Smothers & Woodward, 2009); GluN3A (generous gift from Dr. S. A. Lipton)[54] (GenBank accession number NM_138546); GluN1ΔN with deleted 354 amino acids in the NTD (32 to 386); GluN1ΔC with an introduced stop codon in 838 of the CTD GluN2BΔN) with deleted 354 amino acids in the NTD (32 to 386); GluN2BΔC with an introduced stop codon in 844 of the CTD[55]; GluR0 (GenBank accession number Synechocystis PCC 6803) (generous gift from Dr. M. L. Mayer)[18]; and green fluorescent protein (GFP) (pQBI 25, Takara, Tokyo, Japan) genes, as described previously. The Quick-Change site-directed mutagenesis kit (Agilent Technologies, Santa Clara, CA, USA) was used to generate specific point mutations in the M1/M3 region according to the manufacturer’s instructions using manually designed primers purchased from Sigma. Modified DNA plasmids were transformed into competent XL10-Gold E.coli cells, positive clones were selected, and isolated DNA was sequenced. […] All mutations were verified by DNA sequencing (Macrogen, Seoul, Korea or SeQme, Dobris, Czech Republic). The amino acids are numbered according to the full-length protein, including the signal peptide, with the initiating methionine as 1.
(§2) Experiments were performed 24–48 hrs after transfection on cells transfected with GluN1/GluN2B/GFP plasmids. Whole-cell voltage-clamp recordings from HEK293 cells were made with a patch-clamp amplifier (Axopatch 200B; Axon Instruments, Inc., Foster City, CA) after a capacitance and series resistance (<10 MΩ) compensation of 80–90%.
(§3) Patch pipettes (3–5 MΩ) were filled with a solution containing (in mM): 120 gluconic acid, 15 CsCl, 10 BAPTA, 10 HEPES, 3 MgCl2, 1 CaCl2, and 2 ATP-Mg salt (pH-adjusted to 7.2 with CsOH). When GluR0 receptor responses were studied, intracellular solution contained (in mM): 120 gluconic acid, 15 KCl, 10 BAPTA, 10 HEPES, 3 MgCl2, 1 CaCl2, and 2 ATP-Mg salt (pH-adjusted to 7.2 with KOH). Extracellular solution (ECS) contained the following (in mM): 160 NaCl, 2.5 KCl, 10 HEPES, 10 glucose, 0.2 EDTA, and 0.7 CaCl2 (pH-adjusted to 7.3 with NaOH). Glycine (10 μM), an NMDAR co-agonist, was present in the control and test solutions. All (PA-S and PA-A) solutions were made from freshly prepared 20 mM PA-S and 5 mM PA-A stock in dimethyl sulfoxide (DMSO). The final dilution to ECS was made at 50 °C and followed by 1 min sonication (SONOREX DIGITEC DT 100/H, BADELIN electronic, Berlin, Germany). The same concentration of DMSO was added to all extracellular solutions. Drug applications were made with a microprocessor-controlled multibarrel fast-perfusion system. Changes in the glutamate-induced current in HEK293 cells transfected by GluN1/GluN2B subunits were used to estimate the rate of solution exchange around the cell. Standard ECS was switched to the ECS diluted by water (50%) during glutamate application. The osmolarity was adjusted by sucrose to match the standard ECS. Glutamate (1 mM), glycine (10 μM) and pH was maintained constant in both solutions. The solution exchange rate was estimated to be τ = 4.3 ± 0.3 ms (n = 6) for lifted cells and τ = 12.0 ± 0.9 ms (n = 6) for the attached cells.
The IC50 was determined from a single dose of a steroid using the formula [drawing 1] where I is the relative degree of inhibition and [steroid] is the steroid concentration used. Calculations of IC50 were made assuming 100% inhibition at saturating steroid concentration this is valid for both PA-S and PA-A[12][13]. […]

[2] = target: T2, GluN1/GluN2B receptors (Rattus norvegicus, UniProt P35439+Q00960); assay: Whole-cell patch-clamp of GluN1/GluN2B receptor responses in transfected HEK293 cells; format: cell-based
T2 construct: expressed in transfected cells; host or cells: HEK293
Source text: as §1, §2, §3
Experiments were performed at room temperature (21–25 °C). Data were collected (low-pass filtered at 2 kHz and sampled at 10 kHz) and analyzed using pClamp 10 (Molecular Devices). Unless otherwise mentioned, error bars represent SEM; statistical comparison of groups was performed using Student’s t-test (p < 0.05 was used to determine the significance).
The IC50 was determined from a single dose of a steroid using the formula [drawing 1] where I is the relative degree of inhibition and [steroid] is the steroid concentration used. […]

[3] = target: T2, GluN1/GluN2B receptors; parameters: method as in PMID 22188257; conditions: from −60 to +60 mV; cited from earlier work
[4] = target: T3, GluN1(V656A)/GluN2B receptors (Rattus norvegicus, UniProt P35439+Q00960, V656A); assay: Whole-cell patch-clamp of GluN1(V656A)/GluN2B receptor responses in HEK293 cells; format: cell-based
T3 construct: expressed in transfected cells; host or cells: HEK293
T3 sequence (Q00960 27-1482, other chains not shown): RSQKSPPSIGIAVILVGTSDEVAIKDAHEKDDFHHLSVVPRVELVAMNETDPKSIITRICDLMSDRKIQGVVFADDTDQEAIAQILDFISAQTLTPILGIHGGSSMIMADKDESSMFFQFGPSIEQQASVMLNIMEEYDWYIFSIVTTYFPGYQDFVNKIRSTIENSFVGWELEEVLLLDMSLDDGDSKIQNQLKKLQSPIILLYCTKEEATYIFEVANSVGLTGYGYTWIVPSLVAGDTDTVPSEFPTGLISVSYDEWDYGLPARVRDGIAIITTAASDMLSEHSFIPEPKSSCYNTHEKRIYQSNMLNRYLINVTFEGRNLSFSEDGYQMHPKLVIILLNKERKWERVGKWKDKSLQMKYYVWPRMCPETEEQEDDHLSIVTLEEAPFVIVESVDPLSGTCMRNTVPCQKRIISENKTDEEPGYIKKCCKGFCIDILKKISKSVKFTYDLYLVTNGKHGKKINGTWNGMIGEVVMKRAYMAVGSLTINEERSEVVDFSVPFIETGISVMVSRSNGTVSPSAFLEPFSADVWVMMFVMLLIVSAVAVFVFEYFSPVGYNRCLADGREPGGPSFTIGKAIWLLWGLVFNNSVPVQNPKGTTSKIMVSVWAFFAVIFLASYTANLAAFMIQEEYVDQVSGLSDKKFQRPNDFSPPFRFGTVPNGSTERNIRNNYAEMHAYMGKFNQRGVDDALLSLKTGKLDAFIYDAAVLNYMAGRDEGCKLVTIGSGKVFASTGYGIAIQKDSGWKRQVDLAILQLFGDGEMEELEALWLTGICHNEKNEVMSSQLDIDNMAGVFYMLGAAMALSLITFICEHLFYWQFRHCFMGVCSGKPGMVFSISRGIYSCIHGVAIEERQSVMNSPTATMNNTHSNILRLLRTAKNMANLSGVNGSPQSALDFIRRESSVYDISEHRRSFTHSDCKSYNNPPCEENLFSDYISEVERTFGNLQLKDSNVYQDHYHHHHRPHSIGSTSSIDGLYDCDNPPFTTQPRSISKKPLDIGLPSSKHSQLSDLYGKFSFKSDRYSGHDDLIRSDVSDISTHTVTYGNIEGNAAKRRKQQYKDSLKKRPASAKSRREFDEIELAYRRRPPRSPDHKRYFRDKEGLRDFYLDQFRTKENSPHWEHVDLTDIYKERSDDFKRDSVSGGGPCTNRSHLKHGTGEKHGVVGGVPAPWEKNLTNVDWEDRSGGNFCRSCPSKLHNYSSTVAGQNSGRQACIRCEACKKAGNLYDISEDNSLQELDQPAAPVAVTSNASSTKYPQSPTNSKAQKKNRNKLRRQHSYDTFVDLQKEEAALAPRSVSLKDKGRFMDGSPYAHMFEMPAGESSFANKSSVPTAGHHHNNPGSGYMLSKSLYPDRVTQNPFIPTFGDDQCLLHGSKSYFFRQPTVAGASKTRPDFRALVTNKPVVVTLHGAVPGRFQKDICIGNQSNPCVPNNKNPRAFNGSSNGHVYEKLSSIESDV
Source text: as §1, §2
(§4) Patch pipettes (3–5 MΩ) were filled with a solution containing (in mM): 120 gluconic acid, 15 CsCl, 10 BAPTA, 10 HEPES, 3 MgCl2, 1 CaCl2, and 2 ATP-Mg salt (pH-adjusted to 7.2 with CsOH). […]

[5] = target: T4, GluN1(A649T)/GluN2B receptors (Rattus norvegicus, UniProt P35439+Q00960, A649T); assay: Whole-cell patch-clamp of GluN1(A649T)/GluN2B receptor responses in HEK293 cells; format: cell-based
T4 construct: expressed in transfected cells; host or cells: HEK293
T4 sequence (Q00960 27-1482, other chains not shown): as above
Source text: as §1, §2, §4

[6] = PA-A 20 μM, fit to the Boltzmann equation
[7] = PA-A 20 μM, fit to the Boltzmann equation, read-out: Kd(0 mV)

T1 sequence (Q00960 27-1482, other chains not shown): as above

Compound: O=C(O)c1cc(O)c2ccc(Cl)cc2n1 [7-CKA, 7-Cl-kynurenic acid, reference compound]
- sensitivity of spontaneous currents (absence of glutamate and glycine) to antagonist [1]: only moderately sensitive

Compound: N[C@H](CCCP(=O)(O)O)C(=O)O [D-AP5, D-amino-5-phosphonopentanoic acid, reference compound]
- sensitivity of spontaneous currents (absence of glutamate and glycine) to antagonist [1]: only moderately sensitive

Compound: CC(=O)C1CCC2C3CC[C@@H]4C[C@H](OC(=O)C[N+](C)(C)C)CC[C@]4(C)C3CC[C@]12C (stereo partly drawn) [PA-A, 5β-pregnan-20-on 3α-yl-[(2-trimethylammonio)-ethanoate]]
- voltage dependence of steroid inhibition [1]: strongly voltage dependent
- δ (apparent electrical distance of the binding site) [1, 6]: 0.29
- Kd [1, 7]: 340 µM
- voltage dependence of steroid inhibition ([2]; WT GluN1/GluN2B): weak voltage dependence
- δ (apparent electrical distance of the binding site) ([2]; WT, PA-A 20 μM, fit to the Boltzmann equation): 0.15
- Kd ([2]; WT, PA-A 20 μM, fit to the Boltzmann equation, read-out: Kd(0 mV)): 335 µM
- mode of inhibition ([2]; dependence on receptor activation by agonists): use-dependent
- voltage dependence of inhibition [3]: voltage independent
- voltage dependence of steroid inhibition [4]: intermediate voltage dependence
- δ (apparent electrical distance of the binding site) ([4]; fit to the Boltzmann equation): 0.19
- Kd ([4]; fit to the Boltzmann equation, read-out: Kd(0 mV)): 193 µM
- voltage dependence of steroid inhibition [5]: intermediate voltage dependence
- δ (apparent electrical distance of the binding site) [5, 6]: 0.23
- Kd [5, 7]: 745 µM

Source: publication PMC4471902, “Block of NMDA receptor channels by endogenous neurosteroids: implications for the agonist induced conformational states of the channel vestibule” (Scientific Reports, 2015)
